Experimental data from paper PMC4210175 (Journal of Chemical Information and Modeling, 2014).

Biological target: T1, Mycobacterium thermoresistibile MycP1 (Mycolicibacterium thermoresistibile, UniProt G7CDQ2)
T1 sequence (G7CDQ2 19-443): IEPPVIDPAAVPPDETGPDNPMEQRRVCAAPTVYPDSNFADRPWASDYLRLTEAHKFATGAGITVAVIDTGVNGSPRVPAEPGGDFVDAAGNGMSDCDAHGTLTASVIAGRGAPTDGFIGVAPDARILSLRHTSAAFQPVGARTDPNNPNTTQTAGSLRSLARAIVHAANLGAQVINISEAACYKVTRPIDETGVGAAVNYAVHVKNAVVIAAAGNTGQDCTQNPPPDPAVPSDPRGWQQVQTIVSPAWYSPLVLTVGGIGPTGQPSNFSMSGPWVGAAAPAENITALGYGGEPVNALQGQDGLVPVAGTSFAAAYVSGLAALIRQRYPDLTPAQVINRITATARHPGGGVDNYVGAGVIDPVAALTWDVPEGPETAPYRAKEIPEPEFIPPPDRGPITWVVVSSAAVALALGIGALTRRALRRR
Assay: In vitro quenched fluorescent peptide assay of MycP1 inhibitors
Assay type: biochemical
Conditions: for inhibition at 150 µM: read-out: % inhibition at 150 μM

CC(=O)Nc1ccc(/C=N/NC(N)=S)cc1 [compound 13, Thiacetazone]
inhibition at 150 µM: 80.1%

N=C(N)c1ccc(/C=C/c2ccc(C(=N)N)cc2O)cc1 [compound 11, Hydroxystilbamidine]
IC50: 85.6 µM
inhibition at 150 µM: 79.1%

N=C(N)c1ccc(/N=N/Nc2ccc(C(=N)N)cc2)cc1 [compound 12, Diminazene]
inhibition at 150 µM: 58%
